For experiment [1], the target named is T1, human glucagon receptor (GCGR) (Homo sapiens, UniProt P47871).
T1 construct: expressed in transfected cells; host or cells: HEK-293 (transient, with Cre-luc reporter)
The experiment in a line: CRE-Luc cAMP-responsive luciferase reporter assay, glucagon receptor. Format: cell-based. Here is the method: (§1) The start codon of SYFP2 was replaced by PCR with an XbaI site, and a NotI site was inserted behind the stop codon of SYFP2. The resulting fusion of receptor-SYFP2 was cloned in pcDNA3.
(§2) HEK-293 and Flip-In HEK-293 cells (Invitrogen) were cultured in Dulbecco’s modified Eagle’s media supplemented with 10% foetal calf serum, 100 U/mL penicillin and 100 µg/mL streptomycin. Cells were maintained at 37 °C in a humidified environment containing 5% CO2. HEK-293 cells were transiently transfected using Effectene (Qiagen, Hilden, Germany), following the manufacturer’s protocol. In order to generate stable cell lines Flip-In HEK-293 cells were transfected with the pcDNA5.FRT vector and pOG44 using Effectene. Stable isogenic clones were selected by the addition of hygromycin (100 µg/mL).
(§3) Twenty-four hours after transfection, the cells were seeded into white 96-well plates (Thermo Scientific, Roskilde, Denmark). Twenty-four hours later, the cells were incubated for 3 h in medium containing peptide ligand and then lysed. Luciferase activity was quantified using LucLite reagent (PerkinElmer Life and Analytic Sciences, Wellesley, MA, USA).
(§4) Dose-response curves represent the mean ± S.E.M from at least three independent experiments, each performed in triplicates. […] The dose-response data were fitted to a sigmoidal curve using nonlinear regression, and the EC50 values calculated with the aid of GraphPad 8.0 (GraphPad Dan Diego, CA, USA). The values in Table 1 represent the mean ± S.E.M calculated from the pEC50 (−logEC50) values from at least three independent experiments. Statistical analysis of significance was calculated with GraphPad 8.0 using a two˗tailed, unpaired Student’s t-test.
In general terms: Reporter assays use an easily measured gene product as a stand-in for the process of interest.

The target in another experiment is T2, human GIPR (Homo sapiens, UniProt P48546).
T2 construct: expressed in transfected cells; host or cells: HEK-293 (transient, with Cre-luc reporter)
T2 sequence (P48546 22-466): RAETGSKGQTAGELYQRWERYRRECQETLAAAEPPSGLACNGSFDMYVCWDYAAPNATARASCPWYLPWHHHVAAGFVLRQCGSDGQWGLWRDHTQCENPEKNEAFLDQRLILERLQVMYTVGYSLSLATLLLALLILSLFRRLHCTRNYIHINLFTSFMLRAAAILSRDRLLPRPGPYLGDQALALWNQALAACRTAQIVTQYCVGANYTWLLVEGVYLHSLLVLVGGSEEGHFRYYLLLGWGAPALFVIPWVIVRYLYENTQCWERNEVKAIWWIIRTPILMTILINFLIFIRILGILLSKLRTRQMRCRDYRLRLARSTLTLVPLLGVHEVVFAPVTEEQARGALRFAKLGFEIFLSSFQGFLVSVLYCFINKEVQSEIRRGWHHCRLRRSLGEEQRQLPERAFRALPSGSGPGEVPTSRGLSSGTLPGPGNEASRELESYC
The experiment in a line: CRE-Luc cAMP-responsive luciferase reporter assay, GIP receptor. It counts as cell-based. Here is the method:
as §1, §2, §3, §4

Experiment [2] addresses T3, human GLP-1R (GLP-1R-Nluc) (Homo sapiens, UniProt P43220).
T3 construct: expressed in transfected cells; host or cells: Flp-In HEK-293 stably expressing GLP-1R-NLuc (pcDNA5-FRT); NES-Venus-Gαs transient
The experiment in a line: BRET Gαs recruitment to GLP-1 receptor. It counts as cell-based. To be noted: Gαs BRET (NES-Venus-Gαs), Flip-In HEK-293 cells stably expressing GLP-1R-Nluc, 15 min agonist; mean ± S.E.M., 4 independent experiments. The method, then:
as §2, §4

Another experiment has as its target T4, human GLP-1R (Homo sapiens, UniProt P43220).
T4 construct: expressed in transfected cells; host or cells: HEK-293 (transient, with Cre-luc reporter)
The experiment in a line: CRE-Luc cAMP-responsive luciferase reporter assay, GLP-1 receptor. It counts as cell-based. The method, then:
as §1
HEK-293 and Flip-In HEK-293 cells (Invitrogen) were cultured in Dulbecco’s modified Eagle’s media supplemented with 10% foetal calf serum, 100 U/mL penicillin and 100 µg/mL streptomycin. Cells were maintained at 37 °C in a humidified environment containing 5% CO2. HEK-293 cells were transiently transfected using Effectene (Qiagen, Hilden, Germany), following the manufacturer’s protocol. […]
Twenty-four hours after transfection, the cells were seeded into white 96-well plates (Thermo Scientific, Roskilde, Denmark). […] Luciferase activity was quantified using LucLite reagent (PerkinElmer Life and Analytic Sciences, Wellesley, MA, USA).
as §4

The subject of another experiment is GIPR. To be noted: cited from earlier work. From the text:
(§5) Several GLP-1R agonists (e.g., exenatide, liraglutide, and semaglutide) are currently used clinically to treat both T2DM and obesity. While they reduce mortality, improve glycemic control, reduce body weight and improve cardiovascular risk factors, the use of higher doses is often limited by adverse effects such as nausea and vomiting. There is therefore the potential to improve upon the current class of GLP-1R agonists. Targeting GIPR to treat T2DM and obesity has a somewhat contradictory history. Unlike GLP-1, pharmacological doses of exogenous GIP were not found to be ins ...

For another experiment, the system named is rodent models. The following applies: ref [26],[27]; cited from earlier work.
Text: as §5

pEC50: −log10 of the molar value.

T1 sequence (P47871 26-477): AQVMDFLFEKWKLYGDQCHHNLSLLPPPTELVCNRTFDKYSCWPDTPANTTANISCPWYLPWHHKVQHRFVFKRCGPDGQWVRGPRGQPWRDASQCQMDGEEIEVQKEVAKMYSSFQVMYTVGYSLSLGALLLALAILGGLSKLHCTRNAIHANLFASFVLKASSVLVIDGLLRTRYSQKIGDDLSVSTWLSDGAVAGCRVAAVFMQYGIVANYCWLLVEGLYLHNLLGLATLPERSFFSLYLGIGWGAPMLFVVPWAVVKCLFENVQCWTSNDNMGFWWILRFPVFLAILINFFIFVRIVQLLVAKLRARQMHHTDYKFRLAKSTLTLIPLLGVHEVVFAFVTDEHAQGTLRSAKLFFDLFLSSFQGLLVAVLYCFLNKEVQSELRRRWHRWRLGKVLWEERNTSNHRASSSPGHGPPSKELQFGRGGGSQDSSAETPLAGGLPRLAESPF
T4 sequence (P43220 24-463): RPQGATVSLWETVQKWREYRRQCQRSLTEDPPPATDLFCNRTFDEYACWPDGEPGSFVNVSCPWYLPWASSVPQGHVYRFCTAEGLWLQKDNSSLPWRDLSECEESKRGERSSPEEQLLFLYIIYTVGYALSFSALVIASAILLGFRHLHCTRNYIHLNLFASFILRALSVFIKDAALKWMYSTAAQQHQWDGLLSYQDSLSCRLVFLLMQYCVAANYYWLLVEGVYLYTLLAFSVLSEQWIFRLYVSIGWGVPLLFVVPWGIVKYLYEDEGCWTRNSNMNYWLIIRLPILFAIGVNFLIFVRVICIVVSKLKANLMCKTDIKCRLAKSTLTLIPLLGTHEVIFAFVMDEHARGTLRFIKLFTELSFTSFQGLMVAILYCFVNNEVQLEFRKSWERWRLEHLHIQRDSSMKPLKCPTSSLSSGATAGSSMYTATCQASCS
T3 sequence (P43220 24-463): as above

As to `CC[C@H](C)[C@H](NC(=O)[C@H](Cc1ccccc1)NC(=O)[C@H](CCC(=O)O)NC(=O)[C@H](CCCCN)NC(=O)[C@H](C)NC(=O)[C@H](C)NC(=O)[C@H](CCC(N)=O)NC(=O)CNC(=O)[C@H](CCC(=O)O)NC(=O)[C@H](CC(C)C)NC(=O)[C@H](Cc1ccc(O)cc1)NC(=O)[C@H](CO)NC(=O)[C@H](CO)NC(=O)[C@@H](NC(=O)[C@H](CC(=O)O)NC(=O)[C@H](CO)NC(=O)[C@@H](NC(=O)[C@H](Cc1ccccc1)NC(=O)[C@@H](NC(=O)CNC(=O)[C@H](CCC(=O)O)NC(=O)[C@H](C)NC(=O)[C@@H](N)Cc1c[nH]cn1)[C@@H](C)O)[C@@H](C)O)C(C)C)C(=O)N[C@@H](C)C(=O)N[C@@H](Cc1c[nH]c2ccccc12)C(=O)N[C@@H](CC(C)C)C(=O)N[C@H](C(=O)N[C@@H](CCCCN)C(=O)NCC(=O)N[C@@H](CCCNC(=N)N)C(=O)NCC(=O)O)C(C)C` [GLP-1, Glucagon-like peptide-1], in experiment [1] (CRE-Luc, HEK-293 cells, concentrations up to 1 µM), the “activity at glucagon receptor, in words” value is “could not be detected”. The “activity at GIP receptor, in words” value at human GIPR (CRE-Luc, HEK-293 cells) is given as “Neither glucagon nor GLP-1 displayed any detectable activity”.

With `CC[C@H](C)[C@H](NC(=O)[C@H](CO)NC(=O)[C@H](Cc1ccc(O)cc1)NC(=O)[C@H](CC(=O)O)NC(=O)[C@H](CO)NC(=O)[C@@H](NC(=O)[C@H](Cc1ccccc1)NC(=O)[C@@H](NC(=O)CNC(=O)[C@H](CCC(=O)O)NC(=O)C(C)(C)NC(=O)[C@@H](N)Cc1ccc(O)cc1)[C@@H](C)O)[C@@H](C)O)C(=O)N[C@@H](Cc1ccc(O)cc1)C(=O)N[C@@H](CC(C)C)C(=O)N[C@@H](CC(=O)O)C(=O)N[C@@H](CCCCN)C(=O)N[C@@H](CCC(N)=O)C(=O)N[C@@H](C)C(=O)N[C@@H](C)C(=O)NC(C)(C)C(=O)N[C@@H](CCC(=O)O)C(=O)N[C@@H](Cc1ccccc1)C(=O)N[C@H](C(=O)N[C@@H](CC(N)=O)C(=O)N[C@@H](Cc1c[nH]c2ccccc12)C(=O)N[C@@H](CC(C)C)C(=O)N[C@@H](CC(C)C)C(=O)N[C@@H](C)C(=O)NCC(=O)NCC(=O)N1CCC[C@H]1C(=O)N[C@@H](CO)C(=O)N[C@@H](CO)C(=O)NCC(=O)N[C@@H](C)C(=O)N1CCC[C@H]1C(=O)N1CCC[C@H]1C(=O)N1CCC[C@H]1C(=O)N[C@@H](CO)C(=O)N[C@@H](CCCCN)C(N)=O)C(C)C` [P18], the figures for the pEC50 (in experiment [1]; in experiment [2]; at human GLP-1R) were 4.90, 7.40 and 9.70, respectively. For the same compound, the “Emax (% Glucagon), Glucagon Receptor” value in experiment [1] (maximum luciferase activity as a percentage of glucagon, HEK-293 cells, 3 h incubation, mean ± S.E.M., at least 3 independent experiments, ND = no detectable activity at 1 µM, P18 p < 0.0001 vs glucagon) amounted to 22.6 ± 1.96 d % Glucagon. Further, at human GLP-1R (maximum luciferase activity as a percentage of GLP-1, HEK-293 cells, 3 h incubation, mean ± S.E.M., at least 3 independent experiments, ND = no detectable activity at 1 µM, glucagon p < 0.01 vs GLP-1), the “Emax (% GLP-1), GLP-1 Receptor” value amounted to 106 ± 10.7 % GLP-1. Further, the “Emax (% GIP), GIP Receptor” value on human GIPR (maximum luciferase activity as a percentage of GIP, HEK-293 cells, 3 h incubation, mean ± S.E.M., at least 3 independent experiments, ND = no detectable activity at 1 µM) is given as 94.4 ± 4.09 % GIP. Further, the EC50 on human GIPR (−logEC50/M, CRE-Luc in transiently transfected HEK-293 cells, 3 h incubation, mean ± S.E.M., at least 3 independent experiments in triplicate, ND = no detectable activity at 1 µM, P18 p < 0.05 vs GIP, read-out: pEC50, GIP Receptor (converted)) was 15.8 nM.

Regarding “Pro3GIP: derivative of GIP with a glutamic acid to proline substitution at position three (YAPGTFISDYSIAMDKIHQQDFVNWLLAQKGKKNDWKHNITQ; Gastric inhibitory polypeptide; UniProt P09681 52-93, looked up, variant E3P)”, the “initially reported activity at GIPR, in words” value in the experiment on GIPR (initial report, later contradicted, ref [26],[27]) is on record as “GIPR antagonist”. In addition, the “activity at GIPR, in words” value in the experiment on GIPR (ref [28],[29]) is listed as “low potency GIPR agonist”. Also, the “protection against diabetes and obesity” value with rodent models was “protective against diabetes and obesity in rodent models”.

These data come from PMC6678630 (International Journal of Molecular Sciences, 2019).
